Common to all, as to format: biochemical
Experiment [1] concerns human β-hexosaminidase [human placenta] (HexA/B). As to the kind of experiment: Determination of IC50 values for inhibition of human β-hexosaminidase. The settings on record: ratio. As for the experimental part:
(§1) Inhibitors identified from the screen described in Example 1 were evaluated for IC50 against human β-hexosaminidase [human placenta, Sigma-Aldrich] using a range of inhibitor concentrations from 300 μM to 0.003 μM or 100 μM to 0.001 μM and the following reaction conditions:
(§2) Reactions were carried out at room temperature for thirty minutes and then quenched through the addition of 150 μl 0.5M Na2CO3. Fluorescence readings were taken at excitation wavelength 360 nm and emission wavelength 450 nm. IC50 values were calculated using XLFit 4. The selectivity ratio for inhibition of human O-GlcNAcase over human β-hexosaminidase is defined here as:
(§3) IC50(human β-hexosaminidase)/IC50(Human OGA)

Experiment [2] addresses T1, human β-hexosaminidase [human placenta] (HexA/B).
T1 construct: other: human β-hexosaminidase, human placenta; room temperature, thirty minutes
The experiment is described as above. The settings on record: human β-hexosaminidase, human placenta; room temperature, thirty minutes. The method, then: as §1, §2, §3

Experiment [3] concerns the target T2, human OGA (Homo sapiens, UniProt O60502).
T2 construct: made in house
T2 sequence (O60502 1-916): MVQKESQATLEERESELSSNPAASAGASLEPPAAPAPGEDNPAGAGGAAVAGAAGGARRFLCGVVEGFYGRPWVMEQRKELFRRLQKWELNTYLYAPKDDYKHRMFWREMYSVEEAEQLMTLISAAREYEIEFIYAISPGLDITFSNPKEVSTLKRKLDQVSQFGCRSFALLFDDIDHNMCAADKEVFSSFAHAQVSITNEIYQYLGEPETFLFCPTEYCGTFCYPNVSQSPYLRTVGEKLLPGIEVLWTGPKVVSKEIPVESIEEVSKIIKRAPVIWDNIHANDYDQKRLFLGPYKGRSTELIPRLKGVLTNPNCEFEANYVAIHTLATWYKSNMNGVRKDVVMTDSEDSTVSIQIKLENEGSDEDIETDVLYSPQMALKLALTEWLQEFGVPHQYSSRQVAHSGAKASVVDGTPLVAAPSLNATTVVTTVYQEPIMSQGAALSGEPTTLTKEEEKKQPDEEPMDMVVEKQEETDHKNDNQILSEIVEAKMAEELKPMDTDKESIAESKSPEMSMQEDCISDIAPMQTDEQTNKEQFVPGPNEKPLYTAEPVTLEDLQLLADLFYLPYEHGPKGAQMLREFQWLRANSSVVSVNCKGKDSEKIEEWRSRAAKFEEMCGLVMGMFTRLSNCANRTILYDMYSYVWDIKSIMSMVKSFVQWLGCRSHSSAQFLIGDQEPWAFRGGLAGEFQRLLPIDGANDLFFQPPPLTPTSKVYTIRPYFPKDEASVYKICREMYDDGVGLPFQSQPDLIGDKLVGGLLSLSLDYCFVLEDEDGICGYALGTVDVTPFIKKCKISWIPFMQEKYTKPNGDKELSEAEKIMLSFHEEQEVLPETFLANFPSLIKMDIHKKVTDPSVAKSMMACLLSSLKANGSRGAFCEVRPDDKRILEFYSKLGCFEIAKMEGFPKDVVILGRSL
As to the kind of experiment: Determination of IC50 values for inhibition of human OGA. As for the experimental part: Inhibitors identified from the screen described in Example 1 were evaluated for IC50 using a procedure adapted from Biochem. J. 2009, 420, 221-227. IC50 determination was carried out using a range of inhibitor concentrations from 300 μM to 0.003 μM or 100 μM to 0.001 μM. IC50 values were calculated using XLFit 4.

For `CCCNC(=O)C[C@H]1N[C@H](CO)[C@@H](O)[C@H]1O` [Compound A004, 2-((2R,3S,4R,5R)-3,4-dihydroxy-5-(hydroxymethyl)pyrrolidin-2-yl)-N-propylacetamide], the “Selectivity: IC50(human β-hexosaminidase)/IC50(Human OGA)” value in experiment [1] is listed as above 555. Also, the 50% inhibitory concentration (IC50) is above 300 µM in experiment [2] and 0.537 µM in experiment [3].

Take `CCCNC(=O)C[C@@H]1[C@H](O)[C@H](O)[C@@H](CO)N1CCCCCCCCCO` [Compound A005, 2-((2R,3S,4R,5R)-3,4-dihydroxy-5-(hydroxymethyl)-1-(9-hydroxynonyl)pyrrolidin-2-yl)-N-propylacetamide]: in experiment [1], the “Selectivity: IC50(human β-hexosaminidase)/IC50(Human OGA)” value was above 2142. Also, the IC50 in experiment [2] is above 300 µM; in experiment [3] it was 0.144 µM.

In the case of `CCNC(=O)C[C@H]1N[C@H](CO)[C@@H](O)[C@H]1O` [Compound A006, 2-((2R,3S,4R,5R)-3,4-dihydroxy-5-(hydroxymethyl)pyrrolidin-2-yl)-N-ethylacetamide], in experiment [1], the “Selectivity: IC50(human β-hexosaminidase)/IC50(Human OGA)” value is reported as above 234. In addition, the IC50 in experiment [2] was above 300 µM; in experiment [3], 1.25 µM.

Consider `CNC(=O)C[C@@H]1[C@H](O)[C@H](O)[C@@H](CO)N1CCCCCCCCCO` [Compound A009, 2-((2R,3S,4R,5R)-3,4-dihydroxy-5-(hydroxymethyl)-1-(9-hydroxynonyl)pyrrolidin-2-yl)-N-methylacetamide], for which the “Selectivity: IC50(human β-hexosaminidase)/IC50(Human OGA)” value in experiment [1] was 5472. Further, the IC50 in experiment [2] was found to be 197 µM; in experiment [3] it was 0.036 µM.

Consider `CCCCCCCCCN1[C@H](CC(=O)NC)[C@H](O)[C@H](O)[C@H]1CO` [Compound A011, 2-((2R,3S,4R,5R)-3,4-dihydroxy-5-(hydroxymethyl)-1-nonylpyrrolidin-2-yl)-N-methylacetamide], for which the “Selectivity: IC50(human β-hexosaminidase)/IC50(Human OGA)” value in experiment [1] was above 9174. The IC50 in experiment [2] was above 300 µM; in experiment [3] it was 0.033 µM.

In the case of `CC(C)NC(=O)C[C@H]1N[C@H](CO)[C@@H](O)[C@H]1O` [Compound A013, 2-((2R,3S,4R,5R)-3,4-dihydroxy-5-(hydroxymethyl)pyrrolidin-2-yl)-N-isopropylacetamide], the “Selectivity: IC50(human β-hexosaminidase)/IC50(Human OGA)” value in experiment [1] was above 2. The IC50 in experiment [2] was above 300 µM; in experiment [3] it was 130 µM.

With `CCCCCCCCCN1[C@H](CC(=O)NC(C)C)[C@H](O)[C@H](O)[C@H]1CO` [Compound A014, 2-((2R,3S,4R,5R)-3,4-dihydroxy-5-(hydroxymethyl)-1-nonylpyrrolidin-2-yl)-N-isopropylacetamide], the “Selectivity: IC50(human β-hexosaminidase)/IC50(Human OGA)” value in experiment [1] is above 81. Besides, the IC50 in experiment [2] was above 300 µM; in experiment [3] it was 3.66 µM.

On to `CCCCN1[C@H](CC(=O)NC)[C@H](O)[C@H](O)[C@H]1CO` [Compound A017, 2-((2R,3S,4R,5R)-1-butyl-3,4-dihydroxy-5-(hydroxymethyl)pyrrolidin-2-yl)-N-methylacetamide], for which the “Selectivity: IC50(human β-hexosaminidase)/IC50(Human OGA)” value in experiment [1] was 3500. The values for the IC50 in experiment [2] and in experiment [3] were 196 µM and 0.056 µM, respectively.

Turning to `CNC(=O)C[C@@H]1[C@H](O)[C@H](O)[C@@H](CO)N1CCCCc1ccccc1` [Compound A020, 2-((2R,3S,4R,5R)-3,4-dihydroxy-5-(hydroxymethyl)-1-(4-phenylbutyl)pyrrolidin-2-yl)-N-methylacetamide], the “Selectivity: IC50(human β-hexosaminidase)/IC50(Human OGA)” value in experiment [1] is listed as above 13215. In addition, the IC50 in experiment [2] is above 300 µM; in experiment [3], 0.023 µM.

As to `CCCCCCN1[C@H](CC(=O)NCCC)[C@H](O)[C@H](O)[C@H]1CO` [Compound A023, 2-((2R,3S,4R,5R)-1-hexyl-3,4-dihydroxy-5-(hydroxymethyl)pyrrolidin-2-yl)-N-propylacetamide], the “Selectivity: IC50(human β-hexosaminidase)/IC50(Human OGA)” value in experiment [1] is recorded as above 6211. Further, the results for the IC50 in experiment [2] and in experiment [3] were above 300 µM and 0.048 µM, respectively.

For the molecule `CCCCCCN1[C@@H](CO)[C@H](O)[C@H](O)[C@@H]1CC(=O)NC` [Compound A024, 2-((2S,3R,4S,5S)-1-hexyl-3,4-dihydroxy-5-(hydroxymethyl)pyrrolidin-2-yl)-N-methylacetamide], the “Selectivity: IC50(human β-hexosaminidase)/IC50(Human OGA)” value in experiment [1] is reported as 0.31. For the same molecule, the IC50 in experiment [2] came out at 44 µM; in experiment [3], 143 µM.

As to `CC(C)CNC(=O)C[C@H]1N[C@H](CO)[C@@H](O)[C@H]1O` [Compound A025, 2-((2R,3S,4R,5R)-3,4-dihydroxy-5-(hydroxymethyl)pyrrolidin-2-yl)-N-isobutylacetamide], in experiment [1], the “Selectivity: IC50(human β-hexosaminidase)/IC50(Human OGA)” value is above 2.3. Further, the IC50 in experiment [2] was above 300 µM; in experiment [3] it was 129 µM.

`CC(C)CNC(=O)C[C@@H]1[C@H](O)[C@H](O)[C@@H](CO)N1CCCc1ccccc1` [Compound A026, 2-((2R,3S,4R,5R)-3,4-dihydroxy-5-(hydroxymethyl)-1-(3-phenylpropyl)pyrrolidin-2-yl)-N-isobutylacetamide]: the “Selectivity: IC50(human β-hexosaminidase)/IC50(Human OGA)” value in experiment [1] is above 68.34. Also, the IC50 in experiment [2] is above 300 µM; in experiment [3] it was 4.39 µM.

For the molecule `CCCCCCN1[C@H](CC(=O)NCC(C)C)[C@H](O)[C@H](O)[C@H]1CO` [Compound A027, 2-((2R,3S,4R,5R)-1-hexyl-3,4-dihydroxy-5-(hydroxymethyl)pyrrolidin-2-yl)-N-isobutylacetamide], the “Selectivity: IC50(human β-hexosaminidase)/IC50(Human OGA)” value in experiment [1] is reported as above 25.95. Further, the IC50 in experiment [2] was above 300 µM; in experiment [3] it was 11.6 µM.

In the case of `CCCCCCN1[C@H](CC(=O)NCCO)[C@H](O)[C@H](O)[C@H]1CO` [Compound A028, 2-((2R,3S,4R,5R)-1-hexyl-3,4-dihydroxy-5-(hydroxymethyl)pyrrolidin-2-yl)-N-(2-hydroxyethyl)acetamide], the “Selectivity: IC50(human β-hexosaminidase)/IC50(Human OGA)” value in experiment [1] is above 1.39. Further, the IC50 was at least 300 µM in experiment [2] and 215 µM in experiment [3].

As to `O=C(C[C@@H]1[C@H](O)[C@H](O)[C@@H](CO)N1CCCc1ccccc1)NCCO` [Compound A029, 2-((2R,3S,4R,5R)-3,4-dihydroxy-5-(hydroxymethyl)-1-(3-phenylpropyl)pyrrolidin-2-yl)-N-(2-hydroxyethyl)acetamide], the “Selectivity: IC50(human β-hexosaminidase)/IC50(Human OGA)” value in experiment [1] is given as above 2.38. Besides, the IC50 is above 300 µM in experiment [2] and 125 µM in experiment [3].

Turning to `CCCCCCN1[C@H](CO)[C@H](O)[C@@H](O)[C@H]1CC(=O)NCCO` [Compound A030, 2-((2R,3S,4S,5R)-1-hexyl-3,4-dihydroxy-5-(hydroxymethyl)pyrrolidin-2-yl)-N-(2-hydroxyethyl)acetamide], the “Selectivity: IC50(human β-hexosaminidase)/IC50(Human OGA)” value in experiment [1] is reported as above 3.16. Besides, the IC50 is above 300 µM in experiment [2] and 94.9 µM in experiment [3].

Consider `CCCCCCN1[C@H](CC(=O)NCC2CCCCC2)[C@H](O)[C@H](O)[C@H]1CO` [Compound A031, N-(cyclohexylmethyl)-2-((2R,3S,4R,5R)-1-hexyl-3,4-dihydroxy-5-(hydroxymethyl)pyrrolidin-2-yl)acetamide], for which the “Selectivity: IC50(human β-hexosaminidase)/IC50(Human OGA)” value in experiment [1] is listed as above 3.97. Also, the IC50 in experiment [2] is above 300 µM; in experiment [3], 75.5 µM.

Consider `CCCCCCN1[C@H](CC(=O)NC)[C@H](O)[C@@H](O)[C@@H]1CO` [Compound A032, 2-((2R,3S,4S,5S)-1-hexyl-3,4-dihydroxy-5-(hydroxymethyl)pyrrolidin-2-yl)-N-methylacetamide], for which the “Selectivity: IC50(human β-hexosaminidase)/IC50(Human OGA)” value in experiment [1] is recorded as above 49.4. Moreover, the IC50 is above 300 µM in experiment [2] and 6.07 µM in experiment [3].

`CC(=O)NC[C@H]1N[C@H](CO)[C@@H](O)[C@H]1O` [Compound A033, N-(((2R,3S,4R,5R)-3,4-dihydroxy-5-(hydroxymethyl)pyrrolidin-2-yl)methyl)acetamide]: the “Selectivity: IC50(human β-hexosaminidase)/IC50(Human OGA)” value in experiment [1] is above 178.57. The IC50 in experiment [2] is above 300 µM; in experiment [3] it was 1.68 µM.

As to `CCCCCCN1[C@H](CO)[C@@H](O)[C@@H](O)[C@@H]1CC(=O)NC` [Compound A034, 2-((2S,3S,4R,5R)-1-hexyl-3,4-dihydroxy-5-(hydroxymethyl)pyrrolidin-2-yl)-N-methylacetamide], the “Selectivity: IC50(human β-hexosaminidase)/IC50(Human OGA)” value in experiment [1] is given as above 4.41. Further, the IC50 was above 300 µM in experiment [2] and 68 µM in experiment [3].

The values are drawn from patent publication US20140073801A1, “PYRROLIDINE DERIVATIVES AS SELECTIVE GLYCOSIDASE INHIBITORS AND USES THEREOF” (Summit Corporation Plc, priority 2011, published 2014).
